# Experimental data: patent US7498360B2, “Method and compositions for local treatment of Meniere's disease, tinnitus and/or hearing loss” (Synphora AB, priority 2001, dated 2009)
# What was measured:
# [1] = system: patients suffering from unilateral Meniere's disease; experiment: Local (intratympanic) administration of latanoprost to two patients suffering from Meniere's disease; format: in vivo, human; set-up: key to Tinnitus (grade): 0 = none; 1 = mild; 2 = moderate; 3 = marked; conditions: for Tinnitus (grade): After (7 or 13 days after start of treatment), before: 3; for Acoustic emissions (%) 1 kHz / Acoustic emissions (%) 2 kHz / Acoustic emissions (%) 3 kHz / Acoustic emissions (%) 4 kHz / Acoustic emissions (%) 5 kHz / Acoustic emissions (%) Total reproducibility: After; for Acoustic emissions (%) 1 kHz / Acoustic emissions (%) 2 kHz / Acoustic emissions (%) 3 kHz / Acoustic emissions (%) 4 kHz / Acoustic emissions (%) 5 kHz: before: 0; for Subjective hearing ability: after treatment
# Method: […] About 0.3-0.4 ml of a sterile Xalatan® (0.005% latanoprost) solution was administered by intratympanic installation in close apposition to the round window after appropriate local anaesthesia. The patients were thereafter asked to lie on the side with the treated ear up for about 30 min to enhance the penetration of latanoprost into the internal ear. The patients had at least 40 decibel decrease in the audiogram at 0.5, 1 and 2 kHz frequency, at baseline before treatment with latanoprost. In addition they suffered from episodes of vertigo and nausea in combination with tinnitus. Audiograms, and cochlear emissions were recorded before the treatment and at the 7th or 13th day after the start of the treatment, and information about the subjective symptoms were collected.
# [2] = system: endolymphatic duct structures / inner ear of pigmented guinea pigs; experiment: Intratympanic administration of latanoprost to guinea pigs: tolerability, brain stem audiometry and morphology of the endolymphatic duct structures; format: in vivo, guinea pig
# Method: Four pigmented guinea pigs of either sex weighing around 200-300 grams were anaesthetised with pentobarbital for intratympanic (into the middle ear) administration of latanoprost, and for brain stem audiometric measurements. The audiometric measurements were carried out at 8, 16 and 32 kHz frequency before and after the administration of latanoprost (58 μg/ml; a total of 250 μl/injection corresponding to about 14 μg latanoprost) and the vehicle. Latanoprost was administered once daily for three days into one ear, while the other ear received a similar injection of the vehicle only, and on the fourth day the animals were euthanatized with an overdose of the anaesthetic. The middle ears were dissected and the mucus membranes were inspected. Thereafter the inner ear was removed and the labyrinth was perfusion fixated through the oval and round windows with a 3% buffered glutaraldehyde solution. The tissues were then immersion fixated for about 24 hours in the same solution, and decalcified in 0.1 M sodium EDTA solution for about 2 weeks. The tissues were thereafter prepared according to routine techniques for light microscopy, and ultrathin sections of Epon-embedded tissue pieces were cut for transmission electron microscopy.
# Most importantly, in several animals clear-cut changes in the morphology around the endolymphatic duct were detected. […] These findings were corroborated by 3 persons. […] Similar effects have previously been seen in the ciliary muscle of the eye after topical treatment with latanoprost and other prostaglandins (Lütjen-Drecoll and Tamm, 1989; Lindsey et al., 1998; Stjernschantz et al., 1998).
# [3] = system: patients suffering from unilateral Meniere's disease; experiment: Randomised, double-masked, placebo-controlled crossover clinical trial with latanoprost in Meniere's disease; format: in vivo, human; conditions: for vertigo, visual analogue scale: decreasing values reflecting improvement
# Method: During the priority year, a randomised, double-masked, placebo-controlled clinical trial was performed by the inventors of the present patent application. Nine patients (5 males and 4 females; age 39-65 years) suffering from unilateral Meniere's disease were treated daily for three consecutive days with latanoprost (around 50 micrograms/ml) or placebo adopting a crossover design. Accordingly, each patient was treated with both latanoprost and placebo in random order. Each treatment period lasted for 3 days, and after that the patients were examined at days 5 and 15 from the start of the treatment. Approximately 1 month elapsed between the two treatment periods (washout period). The treatment was given by intratympanic injection (around 0.2-0.8 ml) into the middle ear essentially as described above. Several parameters/symptoms were registered and followed, in particular the following: Pure tone average (decibels), discrimination value (%), tinnitus loudness (decibels), and by using visual analogue scale technique; subjective hearing ability, tinnitus and vertigo. The patients recorded the three last mentioned parameters daily, and the means over the periods 2-5 days and 2-15 days after initiation of treatment with latanoprost and placebo were computed.
# Such improvement was never observed during placebo treatment. At day 15 the mean discrimination value after latanoprost treatment was 68.2±7.2%, while it was 52.9±1.5% after placebo treatment, the difference of 29% being statistically significant at the p<0.05 level. Likewise, a statistically significant (p<0.01) improvement in pure tone average value at day 15 was found after latanoprost treatment in comparison to placebo, the values being 58.9±3.6 and 64.3±3.5 decibels, respectively (a lower value representing improvement). Finally, at least seven out of the nine patients experienced less vertigo both during the immediate period (days 2-5) after initiation of the latanoprost treatment as well as during a longer period (days 2-15) after the initiation of the latanoprost treatment. The values on the visual analogue scale (in mm; decreasing values reflecting improvement, i.e. less sensation of vertigo) were as follows: Days 2-5 latanoprost treatment: 22.4±9.1, and placebo treatment: 33.5±10.8 (p<0.05); Days 2-15 latanoprost treatment: 24.2±10.0 and placebo treatment: 34.2±11.4 (p<0.05).
# [4] = system: patients with Meniere's disease; conditions: two patients with Meniere's disease, with furosemide; cited from earlier work
# [5] = system: vasculature in the cochlea; conditions: in vivo; cited from earlier work
# [6] = two patients, after administration
# [7] = visual analogue scale, latanoprost vs placebo
smiles,measurement,setting,value
"CC(C)OC(=O)CCC/C=C\C[C@@H]1[C@@H](CC[C@@H](O)CCc2ccccc2)[C@H](O)C[C@@H]1O [latanoprost, 13,14-dihydro-17-phenyl-18,19,20-trinor-PGF2α-isopropyl ester]",Tinnitus (grade),[1]; patient one,1
same,Acoustic emissions (%) 1 kHz,[1]; patient one,45%
same,Acoustic emissions (%) 2 kHz,[1]; patient one,0
same,Acoustic emissions (%) 3 kHz,[1]; patient one,42%
same,Acoustic emissions (%) 4 kHz,[1]; patient one,0
same,Acoustic emissions (%) 5 kHz,[1]; patient one,0
same,Acoustic emissions (%) Total reproducibility,"[1]; patient one, before: 5",37%
same,Subjective hearing ability,[1]; patient one,Improved
same,Tinnitus (grade),[1]; patient two,2
same,Acoustic emissions (%) 1 kHz,[1]; patient two,0%
same,Acoustic emissions (%) 2 kHz,[1]; patient two,57%
same,Acoustic emissions (%) 3 kHz,[1]; patient two,0%
same,Acoustic emissions (%) 4 kHz,[1]; patient two,0%
same,Acoustic emissions (%) 5 kHz,[1]; patient two,0%
same,Acoustic emissions (%) Total reproducibility,"[1]; patient two, before: 10",37%
same,Subjective hearing ability,[1]; patient two,Improved
same,audiograms,[1]; [6],no significant change
same,cochlear emissions,[1]; [6],significantly improved
same,patients' condition with respect to the tinnitus and hearing ability,[1]; [6],marked improvement
same,brain stem audiograms,"[2]; guinea pig, 8, 16 and 32 kHz, before and after intratympanic administration",no changes that could be attributed to the treatment
same,morphology around the endolymphatic duct,"[2]; guinea pig, in several animals, zone around fibroblasts in loose connective tissue surrounding the duct",reduced density of the extracellular matrix
same,morphological changes in the cochlea including the organ of Corti with the hair cells,"[2]; guinea pig, intratympanic, about 14 μg once daily for three days",no morphological changes
same,inflammatory changes in the mucous membranes of the middle ear or in the tympanic membrane,"[2]; guinea pig, intratympanic, about 14 μg once daily for three days, examined day 4",No inflammatory changes
same,tolerability,"[2]; guinea pig, intratympanic, once daily for three days",well tolerated
same,"vertigo, visual analogue scale","[3]; Days 2-5, placebo 33.5±10.8, p<0.05",22.4±9.1 mm
same,"vertigo, visual analogue scale","[3]; Days 2-15, placebo 34.2±11.4, p<0.05",24.2±10.0 mm
same,patients (out of nine) who experienced less vertigo,[3]; both days 2-5 and days 2-15 after initiation of treatment,at least seven
same,cochlear emissions,[3]; clinical trial,variable results
same,difference in mean discrimination value versus placebo,"[3]; day 15, p<0.05",29%
same,mean discrimination value,"[3]; day 15, placebo 52.9±1.5%, p<0.05",68.2±7.2%
same,pure tone average value,"[3]; day 15, placebo 64.3±3.5, p<0.01, lower value representing improvement",58.9±3.6 decibels
same,improvement in discrimination value,"[3]; in three of the nine patients, after latanoprost treatment",25-50%
same,tinnitus loudness,[3]; latanoprost vs placebo,No statistically significant change
same,Subjective hearing ability,[3]; [7],No statistically significant change
same,subjective experience of tinnitus,[3]; [7],No statistically significant change
COc1ccc2c(c1)c(CC(=O)O)c(C)n2C(=O)c1ccc(Cl)cc1 [indomethacin],effect on the discrimination score,[4],block the effect of furosemide
CCCCC[C@H](O)/C=C/[C@@H]1[C@@H](C/C=C\CCCC(=O)O)[C@@H](O)C[C@H]1O [PGF2α],effect on the vasculature in the cochlea,[5],no effect
